Like-named read-outs stand apart in the source and are kept apart here.
Key:
CDK1/cyclin B = CDK1/cyclin B kinase assay; type: biochemical, starfish
Protocol: (§1) Controls were performed with appropriate dilutions of dimethylsulfoxide.
(§2) ATP (3,000 Ci/mmol; 10 mCi/ml) in a final volume of 30 μl. After 30 min. incubation at 30° C., 25 μl aliquots of supernatant were spotted onto 2.5×3 cm pieces of Whatman P81 phosphocellulose paper, and, 20 sec. later, the filters were washed five times (for at least 5 min. each time) in a solution of 10 ml phosphoric acid/liter of water. The wet filters were counted in the presence of 1 ml ACS (Amersham) scintillation fluid.

CDK2/cyclin A = biological target: T1, CDK2/cyclin A (Homo sapiens, UniProt P24941); experiment: CDK2/cyclin A kinase assay; type: biochemical; settings: Table 5; read-out: CDK2/cyclin A
T1 construct: made in house; host or cells: insect cells
Protocol: (§3) Blank values were subtracted and activities expressed in % of the maximal activity, i.e. in the absence of inhibitors. Controls were performed with appropriate dilutions of dimethylsulfoxide.
CDK2/cyclin A (human, recombinant, expressed in insect cells) was assayed as described for CDK1/cyclin B.

CDK2/cyclin E = CDK2/cyclin E (Homo sapiens, UniProt P24941); experiment: CDK2/cyclin E kinase assay; type: biochemical; settings: Table 5
Protocol: as §1
(§4) The compounds were tested at various concentrations in the kinase assays, as described in the Methods section.

CDK5/p25 = biological target: T2, CDK5/p25 (Homo sapiens, UniProt Q00535); experiment: CDK5/p25 kinase assay; type: biochemical
T2 construct: made in house
T2 sequence (Q00535 whole entry): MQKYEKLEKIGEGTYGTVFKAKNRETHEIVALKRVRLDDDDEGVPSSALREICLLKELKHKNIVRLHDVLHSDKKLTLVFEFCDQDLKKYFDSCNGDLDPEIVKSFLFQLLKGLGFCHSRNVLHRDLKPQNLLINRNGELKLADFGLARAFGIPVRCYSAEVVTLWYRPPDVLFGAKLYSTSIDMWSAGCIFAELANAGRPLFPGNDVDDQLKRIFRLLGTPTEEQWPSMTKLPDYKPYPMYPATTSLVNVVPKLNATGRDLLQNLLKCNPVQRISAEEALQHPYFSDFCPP
T2 sequence (Q15078 99-307 partner limits assumed): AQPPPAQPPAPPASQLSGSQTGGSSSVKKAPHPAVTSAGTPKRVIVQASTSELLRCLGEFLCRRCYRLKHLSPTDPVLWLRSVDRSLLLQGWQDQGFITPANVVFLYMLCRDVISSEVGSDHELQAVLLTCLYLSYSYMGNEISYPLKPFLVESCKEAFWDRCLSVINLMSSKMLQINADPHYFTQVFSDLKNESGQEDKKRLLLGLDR
Protocol: as §1, §2

CDK7/cyclin H = CDK7/cyclin H (Homo sapiens, UniProt P50613); experiment: CDK7/cyclin H kinase assay; type: biochemical; settings: Table 4
Sequence of CDK7/cyclin H (P50613 whole entry, species assumed): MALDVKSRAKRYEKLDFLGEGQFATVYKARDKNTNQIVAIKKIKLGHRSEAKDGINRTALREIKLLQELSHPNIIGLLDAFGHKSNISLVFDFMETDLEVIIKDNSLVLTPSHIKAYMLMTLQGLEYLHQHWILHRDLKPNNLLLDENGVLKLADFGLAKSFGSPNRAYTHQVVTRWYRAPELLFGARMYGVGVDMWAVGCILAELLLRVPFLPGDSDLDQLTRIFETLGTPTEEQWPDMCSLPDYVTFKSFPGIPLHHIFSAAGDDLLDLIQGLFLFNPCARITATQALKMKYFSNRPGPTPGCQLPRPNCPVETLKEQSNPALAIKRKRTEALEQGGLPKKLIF
Sequence of CDK7/cyclin H (P51946 whole entry partner, species assumed): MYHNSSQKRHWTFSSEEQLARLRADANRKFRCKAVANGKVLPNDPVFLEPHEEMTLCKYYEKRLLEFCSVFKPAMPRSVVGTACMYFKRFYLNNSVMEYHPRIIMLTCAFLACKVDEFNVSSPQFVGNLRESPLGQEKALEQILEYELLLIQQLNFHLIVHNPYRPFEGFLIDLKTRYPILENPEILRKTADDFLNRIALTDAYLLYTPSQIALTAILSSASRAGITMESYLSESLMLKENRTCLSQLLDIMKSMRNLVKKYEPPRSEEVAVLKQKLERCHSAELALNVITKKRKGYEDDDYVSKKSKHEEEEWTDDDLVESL
Protocol: as §3, §4

CDK9/cyclin T = biological target: T3, CDK9/cyclin T (Homo sapiens, UniProt P50750); experiment: CDK9/cyclin T kinase assay; type: biochemical; settings: Table 5; read-out: CDK9/cyclin T
T3 construct: made in house; host or cells: insect cells
T3 sequence (P50750 whole entry): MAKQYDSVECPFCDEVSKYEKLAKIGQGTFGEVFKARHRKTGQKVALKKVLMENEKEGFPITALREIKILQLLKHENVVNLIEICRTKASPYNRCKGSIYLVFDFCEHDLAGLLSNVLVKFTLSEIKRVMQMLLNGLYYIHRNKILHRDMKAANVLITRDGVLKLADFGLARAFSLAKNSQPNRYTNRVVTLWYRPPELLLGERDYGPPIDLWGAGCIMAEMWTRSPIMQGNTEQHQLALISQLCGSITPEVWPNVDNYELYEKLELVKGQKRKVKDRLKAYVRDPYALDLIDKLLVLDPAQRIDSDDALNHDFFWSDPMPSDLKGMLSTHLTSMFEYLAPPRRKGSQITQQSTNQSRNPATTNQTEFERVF
T3 sequence (O60563 whole entry partner): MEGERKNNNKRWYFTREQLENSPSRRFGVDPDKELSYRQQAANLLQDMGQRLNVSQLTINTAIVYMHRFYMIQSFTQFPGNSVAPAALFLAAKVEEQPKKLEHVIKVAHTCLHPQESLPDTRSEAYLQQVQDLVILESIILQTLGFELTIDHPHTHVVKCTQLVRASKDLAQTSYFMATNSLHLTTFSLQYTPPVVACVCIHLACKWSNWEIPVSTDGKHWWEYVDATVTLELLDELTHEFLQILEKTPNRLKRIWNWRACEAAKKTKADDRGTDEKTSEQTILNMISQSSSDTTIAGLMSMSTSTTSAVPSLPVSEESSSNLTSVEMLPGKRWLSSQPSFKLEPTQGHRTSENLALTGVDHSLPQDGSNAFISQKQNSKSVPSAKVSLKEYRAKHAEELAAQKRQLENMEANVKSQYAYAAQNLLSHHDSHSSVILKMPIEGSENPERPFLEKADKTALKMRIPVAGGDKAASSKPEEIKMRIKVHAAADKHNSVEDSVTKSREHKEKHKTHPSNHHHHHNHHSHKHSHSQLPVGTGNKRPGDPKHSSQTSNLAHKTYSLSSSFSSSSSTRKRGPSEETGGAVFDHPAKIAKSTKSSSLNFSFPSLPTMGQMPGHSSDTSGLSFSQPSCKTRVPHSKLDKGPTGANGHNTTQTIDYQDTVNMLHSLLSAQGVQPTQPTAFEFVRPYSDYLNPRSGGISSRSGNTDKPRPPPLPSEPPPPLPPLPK
Protocol: as §3

CK1δ/ε = experiment: CK1 kinase assay; type: biochemical, porcine; settings: read-out: CK1
Protocol: as §3

DYRK1A = DYRK1A (Homo sapiens, UniProt Q13627); experiment: DYRK1A kinase assay; type: biochemical; settings: Table 5; read-out: DYRK1A
Protocol: as §3, §4

Erk2 = Erk2 (Homo sapiens, UniProt P28482); experiment: Erk2 kinase assay; type: biochemical; settings: Table 5
Sequence of Erk2 (P28482 whole entry, species assumed): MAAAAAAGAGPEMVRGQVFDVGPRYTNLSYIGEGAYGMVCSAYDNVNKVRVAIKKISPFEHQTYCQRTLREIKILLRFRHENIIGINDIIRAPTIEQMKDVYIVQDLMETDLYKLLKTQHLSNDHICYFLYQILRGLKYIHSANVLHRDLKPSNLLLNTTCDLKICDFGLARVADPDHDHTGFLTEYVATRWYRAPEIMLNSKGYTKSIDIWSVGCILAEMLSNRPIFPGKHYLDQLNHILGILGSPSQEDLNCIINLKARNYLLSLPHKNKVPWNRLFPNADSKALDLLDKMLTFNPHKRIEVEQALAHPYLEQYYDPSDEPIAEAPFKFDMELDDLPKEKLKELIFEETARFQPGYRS
Protocol: as §3, §4

GSK-3α/β = GSK-3α/β kinase assay; type: biochemical, porcine
Protocol: as §3

[1] = system: SH-SY5Y human neuroblastoma cells; experiment: Cell survival (MTS assay), SH-SY5Y; type: cell-based; settings: read-out: SH-SY5Y cell survival
Protocol: (§5) SH-SY5Y human neuroblastoma cells were grown in DMEM medium (Invitrogen, Cergy Pontoise, France). […] Human foreskin primary fibroblasts (kindly provided by Dr. Gilles Ponzio) were grown in DMEM supplemented with 2 mM L-glutamine and 20 mM HEPES. All the media were supplemented with antibiotics (penicillin-streptomycin) from Lonza and 10% volume of FCS from Invitrogen. Cells were cultured at 37° C. with 5% CO2. Drug treatments were performed on exponentially growing cultures at the indicated time and concentrations. Control experiments were carried out using appropriate dilutions of DMSO. MDCK cell-lines were used to test compounds PKD.

[2] = system: HEK 293 human embryonic kidney cell line; experiment: Cell survival (MTS assay), HEK293; type: cell-based
Protocol: as §5

LS 174T = experiment: Cell survival, LS 174T; type: cell-based; settings: Homo sapiens, LS174T; Table 6
Protocol: Cell viability was determined by measuring the reduction of 3-(4,5-dimethylthiazol-2-yl)-5-(3-carboxymethoxyphenyl)-2-(4-sulfophenyl)-2H-tetrazolium (MTS). Cell death was determined by measuring the level of lactate dehydrogenase activity (LDH) released upon cell lysis.

HCT116 (Spheroids) = experiment: Cell survival, HCT116 (Spheroids); type: cell-based; settings: Homo sapiens, HCT-116; Table 6
B2-CLL lymphocytes = experiment: Survival / cell death of B2-CLL lymphocytes from patients; type: cell-based, human
Protocol: Cell viability was determined by measuring the reduction of 3-(4,5-dimethylthiazol-2-yl)-5-(3-carboxymethoxyphenyl)-2-(4-sulfophenyl)-2/H-tetrazolium (MTS). Cell death was determined by measuring the level of lactate dehydrogenase activity (LDH) released upon cell lysis.

[3] = system: retinoblastoma protein phosphorylation; experiment: Western blot, retinoblastoma protein phosphorylation on CDK2/CDK4 sites in SH-SY5Y; type: cell-based, human; settings: for total Rb: FIG. 8
Protocol: as §5
(§6) Cells were resuspended and lysed for 30 minutes at 4° C. in Homogenization Buffer [60 mM β-glycerophosphate, 15 mM p-nitrophenyl phosphate, 25 mM MOPS (pH 7.2), 15 mM EGTA, 15 mM MgCl2, 1 mM dithiothreitol, 1 mM sodium vanadate, 1 mM NaF, 1 mM phenylphosphate, 0.1% Nonidet P-40 and protease inhibitor cocktail] and sonicated. After centrifugation (14000 rpm for 15 minutes at 4° C.), the protein concentration was determined in the supernatants by the Bradford protein assay (Bio-Rad).
(§7) Whole cell extracts were prepared in buffer containing 100 mM Tris/HCl (pH, 6.8), 1 mM EDTA, 2% SDS and protease inhibitor cocktail. Following heat denaturation for 5 minutes, proteins were separated on 10% or 7% NuPAGE pre-cast Bis-Tris or Tris-Acetate polyacrylamide mini gels (Invitrogen) with MOPS SDS (all but cytochrome C, RNA polymerase II and phospho-Ser2—RNA polymerase II Western blots), MES SDS (cytochrome C), or Tris-Acetate SDS (RNA polymerase II and phospho-Ser2—RNA polymerase II) running buffer depending on protein size. Proteins were transferred to 0.45 μm nitrocellulose filters (Schleicher and Schuell). These were blocked with 5% low fat milk in Tris-Buffered Saline—Tween-20, incubated for 1 h with antibodies (anti-actin: 1:2000) or overnight at 4° C. (cytochome C: 1:500), Rb (1:500), phosphor-Rb (1:500), phospho-Thr320-PP1α (1:1000), RNA polymerase II (1:500), phosphor-Ser2-RNA polymerase II (1:500), Mcl-1 (1:500), caspase-9 (1:1000) and analyzed by Enhanced Chemiluminescence (ECL, Amersham).

[4] = system: RNA polymerase II Ser2 phosphorylation; experiment: Western blot, RNA polymerase II Ser2 phosphorylation in SH-SY5Y; type: cell-based, human; settings: for total RNA pol II: FIG. 10
Protocol: (§8) SH-SY5Y human neuroblastoma cells were grown in DMEM medium (Invitrogen, Cergy Pontoise, France). The HEK 293 human embryonic kidney cell line was grown in MEM medium from Invitrogen. Human foreskin primary fibroblasts (kindly provided by Dr. Gilles Ponzio) were grown in DMEM supplemented with 2 mM L-glutamine and 20 mM HEPES. All the media were supplemented with antibiotics (penicillin-streptomycin) from Lonza and 10% volume of FCS from Invitrogen. Cells were cultured at 37° C. with 5% CO2. Drug treatments were performed on exponentially growing cultures at the indicated time and concentrations. Control experiments were carried out using appropriate dilutions of DMSO. MDCK cell-lines were used to test compounds PKD.
as §6, §7

LS 174T (Oncodesign) = experiment: Cell survival, LS 174T (Oncodesign); type: cell-based; settings: Homo sapiens, LS174T; Table 6
HCT116 (Oncodesign) = experiment: Cell survival, HCT116 (Oncodesign); type: cell-based; settings: Homo sapiens, HCT-116; Table 6
[5] = system: protein phosphatase 1-α Thr320 phosphorylation; experiment: Western blot, protein phosphatase 1-α phosphorylation on Thr320 in SH-SY5Y; type: cell-based, human; settings: FIG. 11, compared with (R)-Roscovitine
Protocol: as §8, §6
(§9) Whole cell extracts were prepared in buffer containing 100 mM Tris/HCl (pH, 6.8), 1 mM EDTA, 2% SDS and protease inhibitor cocktail. […]

Mcl-1 = experiment: Western blot, survival factor Mcl-1 in SH-SY5Y; type: cell-based, human; settings: FIG. 12, compared with (R)-Roscovitine
Protocol: as §8, §6, §9

p53 total protein = experiment: Western blot, p53 total protein in SH-SY5Y; type: cell-based, human; settings: FIG. 13, compared with (R)-Roscovitine
Protocol: as §8, §6, §9

p27 total protein = experiment: Western blot, p27 total protein in SH-SY5Y; type: cell-based, human; settings: FIG. 14, compared with (R)-Roscovitine
Protocol: as §8, §6, §9

PARP cleavage = experiment: Western blot, PARP cleavage in SH-SY5Y; type: cell-based, human; settings: FIG. 15, compared with (R)-Roscovitine
Protocol: as §8, §6, §9

cell lines = experiment: Anti-proliferative activities on cell lines, summary; type: cell-based; settings: in words; listed as formula Ib
[6] = Table 5, read-out: CDK1/cyclin B
[7] = Homo sapiens, Lymphocyte, LLC B-cells, read-out: Cell death induction
[8] = Homo sapiens, Lymphocyte, Table 6, read-out: Chronic Lymphocytic Leukemia cell survival

SMILES	IC50 (CDK1/cyclin B; [6]) [nM]	IC50 (CDK2/cyclin A) [nM]	IC50 (CDK2/cyclin E) [nM]	IC50 (CDK5/p25; Table 5, read-out: CDK5/p25) [nM]	IC50 (CDK9/cyclin T) [nM]	IC50 (CK1δ/ε; Table 5) [nM]	IC50 (DYRK1A) [nM]	IC50 (Erk2) [nM]	IC50 (GSK-3α/β; Table 5, read-out: GSK-3α/β) [nM]	IC50 ([1]; Table 6, MTS assay) [nM]	IC50 ([2]; HEK293, Table 6, MTS assay) [nM]	IC50 (LS 174T) [nM]	IC50 (HCT116 (Spheroids)) [nM]	IC50 (B2-CLL lymphocytes; [7]) [nM]	IC50 (B2-CLL lymphocytes; [8]) [nM]	total Rb [3]	total RNA pol II [4]	also measured
CC[C@H](CO)Nc1cc(NCc2ccccc2)c2ncn(C(C)C)c2n1 [(R)-perharidine A]	430	300	180	400	480	11000	2800	7000	> 100000	14300	27400	21500	10000	7050	7050	essentially constant	essentially constant	IC50 (CDK1/cyclin B; Table 4, read-out: CDK1): 350 nM; IC50 (CDK5/p25; Table 4, read-out: CDK5): 200 nM; IC50 (CDK7/cyclin H): 900 nM; IC50 (CK1δ/ε; Table 4): 4000 nM; IC50 (GSK-3α/β; Table 4, read-out: GSK3): > 30000 nM; IC50 ([1]; Table 4, MTS assay): 16200 nM; IC50 ([2]; HEK293, Table 4, MTS assay): 35600 nM
CC[C@H](CO)Nc1cc(NCc2ccc(-c3ccccn3)cc2)c2ncn(C(C)C)c2n1 [(R)-perharidine C]	460	360	250	600	530	1100	11000	22000	11000	1460	–	–	350	310	310	essentially constant	essentially constant	IC50 (LS 174T (Oncodesign)): 290 nM; IC50 (HCT116 (Oncodesign)): 600 nM; IC50 (B2-CLL lymphocytes; LLC B-cells, read-out: Cell death induction): 280 nM; inhibition of CDK2/4 in cells (retinoblastoma protein phosphorylation) ([3]; compared with (R)-Roscovitine): at lower concentrations than (R)-Roscovitine; inhibition of CDK9 in cells (RNA polymerase II Ser2 phosphorylation) ([4]; FIG. 9, compared with (R)-Roscovitine): at lower concentration than (R)-Roscovitine; inhibition of CDK1/cyclin B in cells (protein phosphatase 1-α Thr320 phosphorylation) [5]: at lower concentration than (R)-Roscovitine; down-regulation of survival factor Mcl-1 (Mcl-1): at lower concentration than (R)-Roscovitine; p53 total protein expression (p53 total protein): at lower concentration than (R)-Roscovitine; p27 total protein down-regulation (p27 total protein): at lower concentration than (R)-Roscovitine; PARP cleavage (PARP cleavage): at lower concentration than (R)-Roscovitine
CC[C@@H](CO)Nc1cc(NCc2ccccc2)c2ncn(C(C)C)c2n1 [(S)-perharidine B, (S)-7-Benzylamino-5-[(2-butyl-1-ol)amino]-3-iso-propylimidazo[4,5-b]pyridine]	730	420	310	500	1300	4800	22000	9000	> 30000	28000	45000	37500	–	15300	15300	essentially constant	essentially constant	anti-proliferative activities compared with (R)-Roscovitine (cell lines): somewhat less efficient

Reference: patent US8450342B2, “Perharidines as CDK inhibitors” (Centre Nationale de la Recherche Scientifique, priority 2008, dated 2013)
